Patent US4006133A, “Aminoglycoside antibiotics” (Sankyo Company Limited, priority 1973, dated 1977)
In brackets after ≈: the same amount, converted by molar mass. Read-outs that look alike come from different tables or passages of the source.

Columns and labels:
Assay type in all cases: cell-based
Salmonella typhi-murium = test: Minimum inhibitory concentration; conditions: read-out: Minimum inhibitory concentration
[1] = system: Pseudomonas aeruginosa 1016; test: Minimum inhibitory concentration
[2] = system: Pseudomonas schuylkilliensis; test: Minimum inhibitory concentration; conditions: read-out: Minimum inhibitory concentration
[3] = system: Staphylococcus aureus 109; test: Minimum inhibitory concentration
Proteus vulgaris 1404 = test: Minimum inhibitory concentration
[4] = system: Staphylococcus aureus 126; test: Minimum inhibitory concentration
Bacillus anthracis = test: microbe, parasite or virus in culture; conditions: read-out: Minimum inhibitory concentration
Escherichia coli NIHJ = test: Minimum inhibitory concentration; conditions: read-out: Minimum inhibitory concentration
[5] = system: Staphylococcus epidermidis; test: Minimum inhibitory concentration; conditions: read-out: Minimum inhibitory concentration
Proteus morganii 1512 = test: Minimum inhibitory concentration
Proteus vulgaris 1416 = test: Minimum inhibitory concentration
[6] = system: Pseudomonas aeruginosa 1100; test: Minimum inhibitory concentration
[7] = system: Pseudomonas aeruginosa 1080; test: Minimum inhibitory concentration
[8] = system: Staphylococcus aureus 167; test: Minimum inhibitory concentration
Proteus rettgeri 1602 = test: Minimum inhibitory concentration
Escherichia coli 665 = test: Minimum inhibitory concentration
Proteus morganii 1501 = test: Minimum inhibitory concentration
Shigella flexneri 2a = test: Minimum inhibitory concentration; conditions: Hurt's infusion agar
[9] = system: Staphylococcus aureus 163; test: Minimum inhibitory concentration
Escherichia coli 704 = test: Minimum inhibitory concentration
Proteus mirabilis 1312 = test: Minimum inhibitory concentration
[10] = system: Pseudomonas aeruginosa Scr.; test: Minimum inhibitory concentration; conditions: read-out: Minimum inhibitory concentration
Proteus rettgeri 1601 = test: Minimum inhibitory concentration
[11] = system: Bacillus subtilis PCI-219; test: Minimum inhibitory concentration
Shigella sonnei = test: Minimum inhibitory concentration; conditions: Hurt's infusion agar
Escherichia coli 620 = test: Minimum inhibitory concentration
Klebsiella 806 = test: Minimum inhibitory concentration
[12] = system: Pseudomonas aeruginosa 1055; test: Minimum inhibitory concentration
Escherichia coli 605 = test: Minimum inhibitory concentration
Salmonella enteritidis = test: Minimum inhibitory concentration; conditions: Salmonella enterica, read-out: Minimum inhibitory concentration
Proteus mirabilis 1306 = test: Minimum inhibitory concentration
Klebsiella 813 = test: Minimum inhibitory concentration
[13] = system: Staphylococcus aureus 209 P; test: Minimum inhibitory concentration; conditions: read-out: Minimum inhibitory concentration
[14] = system: butirosin-resistant as well as butirosin-sensitive strains; test: Antibacterial activity, butirosin-resistant and butirosin-sensitive strains

For `NCC[C@H](O)C(=O)N[C@@H]1C[C@H](N)[C@@H](O[C@H]2O[C@H](CN)[C@@H](O)[C@H](O)[C@H]2N)[C@H](O[C@@H]2O[C@H](CO)[C@H](O)[C@H]2O)[C@H]1O` [BA, butirosin A, reference compound], which MIC (Salmonella typhi-murium; Salmonella typhi-murium, Hurt's infusion agar) is on record?
Its MIC is 12.5 µg/mL (≈ 22.5 µM).

And the MIC ([1]; Pseudomonas aeruginosa, 1016, read-out: Minimum inhibitory concentration)?
Its MIC is > 200 µg/mL.

What about the MIC ([2]; Pseudomonas) of the same compound?
The MIC was 25 µg/mL (≈ 45 µM).

What about the MIC ([3]; Staphylococcus aureus, 109, read-out: Minimum inhibitory concentration) of the same compound?
The MIC was > 200 µg/mL.

What about the MIC (Proteus vulgaris 1404; Proteus vulgaris, 1404, read-out: Minimum inhibitory concentration) of the same compound?
The MIC was 25 µg/mL (≈ 45 µM).

And the MIC ([4]; Staphylococcus aureus, 126, read-out: Minimum inhibitory concentration)?
Its MIC is 6.5 µg/mL (≈ 11.7 µM).

What about the MIC (Bacillus anthracis) of the same compound?
Its MIC is 0.8 µg/mL (≈ 1.44 µM).

What about the MIC (Escherichia coli NIHJ; Escherichia coli) of the same compound?
Its MIC is 3.1 µg/mL (≈ 5.58 µM).

What about the MIC [5] of the same compound?
The MIC was 0.4 µg/mL (≈ 0.72 µM).

And the MIC (Proteus morganii 1512; Morganella morganii, 1512, read-out: Minimum inhibitory concentration)?
The MIC was 25 µg/mL (≈ 45 µM).

And the MIC (Proteus vulgaris 1416; Proteus vulgaris, 1416, read-out: Minimum inhibitory concentration)?
Its MIC is 100 µg/mL (≈ 180 µM).

And the MIC ([6]; Pseudomonas aeruginosa, 1100, read-out: Minimum inhibitory concentration)?
Its MIC is > 200 µg/mL.

What about the MIC ([7]; Pseudomonas aeruginosa, 1080, read-out: Minimum inhibitory concentration) of the same compound?
Its MIC is > 200 µg/mL.

What about the MIC ([8]; Staphylococcus aureus, 167, read-out: Minimum inhibitory concentration) of the same compound?
The MIC was 200 µg/mL (≈ 360 µM).

And the MIC (Proteus rettgeri 1602; Providencia rettgeri, 1602, read-out: Minimum inhibitory concentration)?
Its MIC is > 200 µg/mL.

What about the MIC (Escherichia coli 665; Escherichia coli, 665, read-out: Minimum inhibitory concentration) of the same compound?
Its MIC is > 200 µg/mL.

And the MIC (Proteus morganii 1501; Morganella morganii, 1501, read-out: Minimum inhibitory concentration)?
Its MIC is 3.1 µg/mL (≈ 5.58 µM).

What about the MIC (Shigella flexneri 2a) of the same compound?
Its MIC is 6.2 µg/mL (≈ 11.2 µM).

And the MIC ([9]; Staphylococcus aureus, 163, read-out: Minimum inhibitory concentration)?
Its MIC is > 200 µg/mL.

And the MIC (Escherichia coli 704; Escherichia coli, 704, read-out: Minimum inhibitory concentration)?
The MIC was 12.5 µg/mL (≈ 22.5 µM).

What about the MIC (Proteus mirabilis 1312; Proteus mirabilis, 1312, read-out: Minimum inhibitory concentration) of the same compound?
The MIC was 100 µg/mL (≈ 180 µM).

What about the MIC ([10]; Pseudomonas aeruginosa) of the same compound?
Its MIC is 12.5 µg/mL (≈ 22.5 µM).

And the MIC (Proteus rettgeri 1601; Providencia rettgeri, 1601, read-out: Minimum inhibitory concentration)?
The MIC was 6.2 µg/mL (≈ 11.2 µM).

And the MIC ([11]; Bacillus subtilis, PCI219, read-out: Minimum inhibitory concentration)?
The MIC was 0.4 µg/mL (≈ 0.72 µM).

And the MIC (Shigella sonnei)?
Its MIC is 6.2 µg/mL (≈ 11.2 µM).

What about the MIC (Escherichia coli 620; Escherichia coli, 620, read-out: Minimum inhibitory concentration) of the same compound?
Its MIC is > 200 µg/mL.

And the MIC (Klebsiella 806; Klebsiella, 806, read-out: Minimum inhibitory concentration)?
Its MIC is 3.1 µg/mL (≈ 5.58 µM).

And the MIC ([12]; Pseudomonas aeruginosa, 1055, read-out: Minimum inhibitory concentration)?
The MIC was > 200 µg/mL.

What about the MIC (Escherichia coli 605; Escherichia coli, 605, read-out: Minimum inhibitory concentration) of the same compound?
Its MIC is > 200 µg/mL.

And the MIC (Salmonella enteritidis; ENTERITIDIS)?
Its MIC is 12.5 µg/mL (≈ 22.5 µM).

What about the MIC (Proteus mirabilis 1306; Proteus mirabilis, 1306, read-out: Minimum inhibitory concentration) of the same compound?
The MIC was 50 µg/mL (≈ 90 µM).

What about the MIC (Klebsiella 813; Klebsiella, 813, read-out: Minimum inhibitory concentration) of the same compound?
The MIC was 50 µg/mL (≈ 90 µM).

And the MIC ([13]; Staphylococcus aureus, 209P)?
Its MIC is 1.5 µg/mL (≈ 2.7 µM).

What does the source list for `NCC[C@H](O)C(=O)N[C@@H]1C[C@H](N)[C@@H](O[C@H]2O[C@H](CN)CC[C@H]2N)[C@H](O[C@@H]2O[C@H](CN)[C@H](O)[C@H]2O)[C@H]1O` [ATBA, 5"-amino-3',4',5"-trideoxybutirosin A]?
MIC (Salmonella typhi-murium): 6.2 µg/mL (≈ 11.9 µM); MIC ([1]; Pseudomonas aeruginosa 1016, Hurt's infusion agar, read-out: Minimum inhibitory concentration): 3.1 µg/mL (≈ 5.93 µM); MIC ([2]; Pseudomonas schuylkilliensis, Hurt's infusion agar): 6.2 µg/mL (≈ 11.9 µM); MIC ([3]; Staphylococcus aureus 109, Hurt's infusion agar, read-out: Minimum inhibitory concentration): 3.1 µg/mL (≈ 5.93 µM); MIC (Proteus vulgaris 1404; Proteus vulgaris 1404, Hurt's infusion agar, read-out: Minimum inhibitory concentration): 6.2 µg/mL (≈ 11.9 µM); MIC ([4]; Staphylococcus aureus 126, Hurt's infusion agar, read-out: Minimum inhibitory concentration): 1.5 µg/mL (≈ 2.87 µM); MIC (Bacillus anthracis): 0.1 µg/mL (≈ 0.191 µM); MIC (Escherichia coli NIHJ; Escherichia coli NIHJ, Hurt's infusion agar): 3.1 µg/mL (≈ 5.93 µM); MIC ([5]; Hurt's infusion agar): 1.5 µg/mL (≈ 2.87 µM); antibacterial activity (in words) [14]: extremely active; MIC (Proteus morganii 1512; Morganella morganii, Proteus morganii 1512, Hurt's infusion agar, read-out: Minimum inhibitory concentration): 3.1 µg/mL (≈ 5.93 µM); MIC (Proteus vulgaris 1416; Proteus vulgaris 1416, Hurt's infusion agar, read-out: Minimum inhibitory concentration): 50 µg/mL (≈ 95.7 µM); MIC ([6]; Pseudomonas aeruginosa 1100, Hurt's infusion agar, read-out: Minimum inhibitory concentration): 25 µg/mL (≈ 47.8 µM); MIC ([7]; Pseudomonas aeruginosa 1080, Hurt's infusion agar, read-out: Minimum inhibitory concentration): 100 µg/mL (≈ 191 µM); MIC ([8]; Staphylococcus aureus 167, Hurt's infusion agar, read-out: Minimum inhibitory concentration): 0.1 µg/mL (≈ 0.191 µM); MIC (Proteus rettgeri 1602; Providencia rettgeri, Proteus rettgeri 1602, Hurt's infusion agar, read-out: Minimum inhibitory concentration): 12.5 µg/mL (≈ 23.9 µM); MIC (Escherichia coli 665; Escherichia coli 665, Hurt's infusion agar, read-out: Minimum inhibitory concentration): 12.5 µg/mL (≈ 23.9 µM); MIC (Proteus morganii 1501; Morganella morganii, Proteus morganii 1501, Hurt's infusion agar, read-out: Minimum inhibitory concentration): 1.5 µg/mL (≈ 2.87 µM); MIC (Shigella flexneri 2a): 3.1 µg/mL (≈ 5.93 µM); MIC ([9]; Staphylococcus aureus 163, Hurt's infusion agar, read-out: Minimum inhibitory concentration): 25 µg/mL (≈ 47.8 µM); MIC (Escherichia coli 704; Escherichia coli 704, Hurt's infusion agar, read-out: Minimum inhibitory concentration): 6.2 µg/mL (≈ 11.9 µM); MIC (Proteus mirabilis 1312; Proteus mirabilis 1312, Hurt's infusion agar, read-out: Minimum inhibitory concentration): 50 µg/mL (≈ 95.7 µM); MIC ([10]; Pseudomonas aeruginosa Scr., Hurt's infusion agar): 1.5 µg/mL (≈ 2.87 µM); MIC (Proteus rettgeri 1601; Providencia rettgeri, Proteus rettgeri 1601, Hurt's infusion agar, read-out: Minimum inhibitory concentration): 1.5 µg/mL (≈ 2.87 µM); MIC ([11]; PCI219, Bacillus subtilis PCI-219, Hurt's infusion agar, read-out: Minimum inhibitory concentration): 0.1 µg/mL (≈ 0.191 µM); MIC (Shigella sonnei): 3.1 µg/mL (≈ 5.93 µM); MIC (Escherichia coli 620; Escherichia coli 620, Hurt's infusion agar, read-out: Minimum inhibitory concentration): 12.5 µg/mL (≈ 23.9 µM); MIC (Klebsiella 806; Klebsiella 806, Hurt's infusion agar, read-out: Minimum inhibitory concentration): 6.2 µg/mL (≈ 11.9 µM); MIC ([12]; Pseudomonas aeruginosa 1055, Hurt's infusion agar, read-out: Minimum inhibitory concentration): 6.2 µg/mL (≈ 11.9 µM); MIC (Escherichia coli 605; Escherichia coli 605, Hurt's infusion agar, read-out: Minimum inhibitory concentration): 25 µg/mL (≈ 47.8 µM); MIC (Salmonella enteritidis; Salmonella enteritidis, Hurt's infusion agar): 6.2 µg/mL (≈ 11.9 µM); MIC (Proteus mirabilis 1306; Proteus mirabilis 1306, Hurt's infusion agar, read-out: Minimum inhibitory concentration): 25 µg/mL (≈ 47.8 µM); MIC (Klebsiella 813; Klebsiella 813, Hurt's infusion agar, read-out: Minimum inhibitory concentration): 25 µg/mL (≈ 47.8 µM); MIC ([13]; Staphylococcus aureus 209 P, Hurt's infusion agar): 0.2 µg/mL (≈ 0.383 µM)
